Laboratory results taken from patent publication US20050080113A1, “Medicinal compositions” (priority 2001, published 2005).
One block for each molecule: values may come before it.

Tests used:
TNF-α production = experiment: Measurement of inhibiting activity of TNF-α production in LPS-stimulated THP-1 cells, ELISA (Reference Example C 2); type: cell-based; settings: Homo sapiens, LPS 5 μg/mL, 4 hours, read-out: IC50 (concentration necessary for inhibiting TNF-α production by 50%)
Description: Measurement of Inhibiting Activity of TNF-α Production
After THP-1 cells which had been cultured on PRMI 1640 medium (manufactured by Life Technologies, Inc.) containing 1% inactivated bovine fetal serum (manufactured by Life Technologies, Inc., U.S.A.) and 10 mM HEPES (pH 7.5) seeded on a 96 well-plate to 1×10^5 cells/well, 1 μL test compound dissolved in DMSO was added. After incubation at 37° C. for 1 hour in a CO2 incubator, LPS (Wako Pure Chemicals) was added to the final concentration 5 μg/mL. After cultured at 37° C. for 4 hours in a CO2 incubator, the supernatant was obtained by centrifugation. The concentration of TNF-α in the supernatant was measured by ELISA (R&D Systems, Quantikine Kit). The concentration (IC50 value) of the test compound necessary for inhibiting TNF-α production by 50% was calculated using PRIMS 2.01 (Graphpad Software).

human p38 MAP kinase = target: T1, human p38 MAP kinase (Homo sapiens, UniProt Q16539); experiment: Measurement of the enzyme inhibitory activity of active form p38 MAP kinase, 32P uptake into Myelin Basic Protein (Reference Example C 1); type: biochemical; settings: Myelin Basic Protein substrate, 30° C., 60 minutes, read-out: IC50 (concentration necessary for inhibiting uptake of 32P into an acid insoluble fraction by 50%)
T1 construct: made in house; host or cells: Sf-21 insect cells, baculovirus (BAC-HP38 co-infected with BAC-caMKK3)
T1 sequence (Q16539 whole entry): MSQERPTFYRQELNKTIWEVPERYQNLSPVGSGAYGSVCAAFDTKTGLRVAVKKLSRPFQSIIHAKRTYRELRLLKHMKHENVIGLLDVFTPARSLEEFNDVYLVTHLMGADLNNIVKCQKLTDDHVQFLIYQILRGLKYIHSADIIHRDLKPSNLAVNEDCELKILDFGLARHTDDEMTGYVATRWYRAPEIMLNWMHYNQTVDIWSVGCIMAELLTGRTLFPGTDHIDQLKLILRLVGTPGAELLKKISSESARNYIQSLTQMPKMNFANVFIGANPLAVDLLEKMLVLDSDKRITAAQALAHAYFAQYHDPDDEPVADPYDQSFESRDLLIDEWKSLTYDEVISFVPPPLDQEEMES
Description: The genetic manipulations described below were according to a method described in the book (Maniatis et al., Molecular Cloning, Cold Spring Harbor Laboratory, 1989) or methods described in the protocols attached to the reagents.
(1) Cloning of Human p38 MAP Kinase Gene and Preparation of Recombinant Baculovirus
Cloning of human p38 MAP kinase gene was performed by a PCR method using a primer set P38 U: 5′-[…] 3′ [SEQ ID NO:1] and PAG-L: 5′-[…]-3′ [SEQ ID NO:2] made by the use of kidney cDNA (Toyobo, QUICK-Clone cDNA) as a template and referring to the base sequence of p38 MAP kinase gene reported by Han et al. (Science 265 (5173), 808 811 (1994)).
A PCR reaction was performed by a Hot Start method using AmpliWax PCR Gem 100 (Takara Shuzo). As the lower mixed solution, 2 μL 10×LA PCR Buffer, 3 μL 2.5 mM dNTP solution, each 2.5 μL of 12.5 μM primer solutions, and 10 μL sterile distilled water were mixed. As the upper mixed solution, 1 μL human cardiac cDNA (1 ng/mL) as a template, 3 μL 10×LA PCR Buffer, 1 μL 2.5 mM dNTP solution, 0.5 μL TaKaRa LA Taq DNA polymerase (Takara Shuzo), and 24.5 μL sterile distilled water were mixed. One AmpliWax PCR Gem 100 (Takara Shuzo) was added to the prepared lower mixed solution and the mixture was treated at 70° C. for 5 min and for 5 min in an ice and, thereafter, the upper mixed solution was added to prepare a reaction solution for PCR. […]

[1] = tested on: osteoclast formation in mouse bone marrow cells; experiment: Inhibitory action of osteoclast formation (TRAP positive multinucleated cells, bone marrow cell culture), Example 2; type: cell-based; settings: for Osteoclast count (/well): 6 days, TRAP positive multinucleated cells, average ± standard deviation (N = 4-5)
Description: Bone marrow cells were collected from the tibia of 8-week-old male ddY mouse and suspended in αMEM medium containing 10% FBS and sown in a 24 well plate at a density of 10^6 cells/0.5 ml/well. After static culture overnight, the medium was changed to the above-mentioned medium containing 10^−8 M 1α, 25 (OH)2D3 or Reference Example D compound 16 1 at 0.01, 0.1, 1 or 10 μM, respectively and further cultured for 6 days. After the completion of the culture, the cells were fixed and subjected to staining of tartrateresistant acid phosphatase (TRAP), which is a differentiation index of osteoclast, and TRAP positive multinucleated cells with three or more nuclei were counted as osteoclasts with a microscope.

[2] = Test using rat yeast-induced pain model animal (pain threshold, pressure device), Example 1; type: in vivo; settings: oral, pain threshold 2 hours after administration
Description: Male Sprague-Dawley rats (4 week-old, Clear Japan) were used. A 20% yeast physiological saline solution (0.1 ml) was subcutaneously injected into right hind pedal sole to induce inflammation in the right hind pedal sole. One hour later, 0.5% aqueous methyl cellulose or Reference Example D compound 16 1 suspended in 0.5% aqueous methyl cellulose was orally administered (0.5 ml/100 g body weight). After 2 hours from sample administration, pain threshold value was measured based on false escape reaction using a pressure device. A group contained 6 rats.

- IC50 (TNF-α production): 140 nM
- melting point: 177 to 178 °C
SMILES: CNc1nc(-c2ccc(OC)cc2)c(-c2ccncc2)s1 [13-16, N-methyl [4-(4-methoxyphenyl)-5-(4-pyridyl)-1,3-thiazol-2-yl]amine]

- IC50 (TNF-α production): 180 nM
- melting point: 224 to 225 °C
SMILES: CNc1nc(-c2ccc(Cl)cc2)c(-c2ccncc2)s1 [13-70, N-methyl [4-(4-chlorophenyl)-5-(4-pyridyl)-1,3-thiazol-2-yl]amine]

- IC50 (human p38 MAP kinase): 630 nM
- melting point: 172 to 173 °C
SMILES: CNc1nc(-c2ccc3c(c2)CCC3)c(-c2cccnc2)s1 [13-74]

- IC50 ([1]; 144 h, mouse bone marrow cells, 1α,25(OH)2D3, 6 days culture, read-out: IC50 value against formation of osteoclast): 300 nM
SMILES: CCc1nc(-c2cccc(C)c2)c(-c2ccnc(NC(=O)c3ccccc3)c2)s1 [D 16-1, N-[4-[2-ethyl-4-(3-methylphenyl)-1,3-thiazol-5-yl]-2-pyridyl]benzamide]
- number of osteoclasts ([1]; 0.01, 0.1, 1 or 10 μM): decreased in a dose-dependent manner
- formation of osteoclast ([1]; at 10 μM): barely observed
- Osteoclast count (/well) ([1]; concentration 0.01 μM, mouse bone marrow cells): 183.8 ± 2.9 /well
- Osteoclast count (/well) ([1]; concentration 0.1 μM, mouse bone marrow cells): 140.8 ± 7.6 /well
- Osteoclast count (/well) ([1]; concentration 1 μM, mouse bone marrow cells): 72.4 ± 4.4 /well
- Osteoclast count (/well) ([1]; concentration 10 μM, mouse bone marrow cells): 0.6 ± 0.4 /well
- concentration from which the action on osteoclast number was found significantly ([1]; mouse bone marrow cells, 0.01-10 μM tested): 0.1 µM
- antinociceptive effect [2]: dose-dependent antinociceptive effect
- minimum effective dose (antinociceptive effect) [2]: 10 mg/kg
